Assay results from patent US20250064947A1, “CYTOTOXICITY TARGETING CHIMERAS FOR FIBROBLAST ACTIVATION PROTEIN-EXPRESSING CELLS” (Glaxosmithkline Intellectual Property Development Limited, priority 2022, published 2025).

Target: T1, FAP (Homo sapiens, UniProt Q12884)
T1 construct: Target cells: WI-38 cells (typically 1000-20,000 cells per well); endogenous in cells; host or cells: WI-38 cells
T1 sequence (Q12884 1-760): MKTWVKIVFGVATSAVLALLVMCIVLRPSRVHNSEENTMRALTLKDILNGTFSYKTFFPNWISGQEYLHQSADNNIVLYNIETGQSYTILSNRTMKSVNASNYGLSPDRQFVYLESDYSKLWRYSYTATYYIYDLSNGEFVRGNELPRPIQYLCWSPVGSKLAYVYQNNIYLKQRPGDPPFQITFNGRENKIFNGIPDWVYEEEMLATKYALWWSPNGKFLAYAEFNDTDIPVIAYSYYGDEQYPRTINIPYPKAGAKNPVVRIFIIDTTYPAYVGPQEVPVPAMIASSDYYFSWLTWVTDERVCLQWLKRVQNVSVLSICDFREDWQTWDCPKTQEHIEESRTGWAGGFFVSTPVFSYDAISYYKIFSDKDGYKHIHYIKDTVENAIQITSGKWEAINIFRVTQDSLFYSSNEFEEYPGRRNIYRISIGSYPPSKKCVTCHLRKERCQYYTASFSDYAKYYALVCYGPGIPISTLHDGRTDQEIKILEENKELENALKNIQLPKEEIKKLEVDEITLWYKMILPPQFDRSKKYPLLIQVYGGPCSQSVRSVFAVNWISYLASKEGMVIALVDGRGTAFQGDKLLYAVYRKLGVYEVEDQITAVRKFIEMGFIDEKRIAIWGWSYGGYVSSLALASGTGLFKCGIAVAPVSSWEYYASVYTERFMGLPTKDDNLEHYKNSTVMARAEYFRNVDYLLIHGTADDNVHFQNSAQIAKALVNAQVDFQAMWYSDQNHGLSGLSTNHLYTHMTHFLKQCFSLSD
Test: Antibody dependent cellular cytotoxicity (ADCC) reporter assay
Type: cell-based
Design: key to ADCC Reporter Assay pEC50: Inactive = pEC50 < 5
Conditions: WI-38 target cells; Jurkat FcγRIIIa NFAT-luciferase reporter cells; with anti-cotinine antibody (SEQ ID NO: 11/12); 12-18 hours; average if more than one run
Procedure: An antibody dependent cellular cytotoxicity (ADCC) reporter assay was conducted using the following four assay components: (i) ARM compound of Formula (I) targeting FAP (concentrations ranging from […]); (ii) anti-cotinine antibody having a heavy chain sequence of SEQ ID NO: 11 and a light chain sequence of SEQ ID NO: 12 (rabbit variable region with human IgG1 Fc domain containing DE mutation (S239D/I332E)) (concentrations ranging from 0.01 μg/mL 200 μg/mL); (iii) Target cells: WI-38 cells (typically 1000-20,000 cells per well); and (iv) Reporter cells—Jurkat cells engineered to express FcγRIIIa with a reporter gene luciferase under the control of the NFAT promoter (typically 3000-75,000 cells per well). Reagents were combined in final volume of 20 μL in 384—well tissue culture treated plate. All four assay components were incubated together for about 12-18 hours. Thereafter, BioGlo Detection reagent (Promega) was added to the wells to lyse the cells and provide a substrate for the luciferase reporter protein.
Luminescence signal was measured on a microplate reader capable of measuring luminescence and signal:background was calculated by dividing the signal of a test well by the signal obtained when no compound of formula (I) was included in the assay. EC50 calculations were done using Graphpad Prism Software, specifically a nonlinear regression curve fit (Y=Bottom+(Top−Bottom)/(1+10^((Log EC50−X)*HillSlope))).
ARMs compounds of Formula (I) were tested for ADCC activity in the above assay in one or more experimental runs and the results are shown in Table 3 below. Potency of the compounds of Formula (I) is reported as a pEC50 values. The pEC50 value is the negative log of the EC50 value, wherein the EC50 value is half maximal effective concentration measured in molar (M). For compounds tested in more than one experimental run, the pEC50 value is reported as an average.

Structure (SMILES) | ADCC Reporter Assay pEC50
CN(CCNC(=O)[C@H]1CC[C@H](NC(=O)CCCO[C@H]2CC[C@H](OCCNC(=O)[C@H]3CC(=O)N(C)[C@@H]3c3cccnc3)CC2)CC1)c1ccc2nccc(C(=O)NCC(=O)N3CC(F)(F)C[C@H]3C#N)c2c1 [Example 4, N-(2-((S)-2-cyano-4,4-difluoropyrrolidin-1-yl)-2-oxoethyl)-6-(methyl(2-((1R,4r)-4-(4-(((1S,4R)-4-(2-((2S,3S)-1-methyl-5-oxo-2-(pyridin-3-yl)pyrrolidine-3-carboxamido)ethoxy)cyclohexyl)oxy)butanamido)cyclohexane-1-carboxamido)ethyl)amino)quinoline-4-carboxamide] | Inactive
CN(CCNC(=O)CCCO[C@H]1CC[C@H](OCCNC(=O)[C@H]2CC[C@H](NC(=O)CCCO[C@H]3CC[C@H](OCCNC(=O)[C@H]4CC(=O)N(C)[C@@H]4c4cccnc4)CC3)CC2)CC1)c1ccc2nccc(C(=O)NCC(=O)N3CC(F)(F)C[C@H]3C#N)c2c1 [Example 3, N-(2-((S)-2-cyano-4,4-difluoropyrrolidin-1-yl)-2-oxoethyl)-6-(methyl(2-(4-(((1R,4r)-4-(2-((1R,4R)-4-(4-(((1S,4R)-4-(2-((2S,3S)-1-methyl-5-oxo-2-(pyridin-3-yl)pyrrolidine-3-carboxamido)ethoxy)cyclohexyl)oxy)butanamido)cyclohexane-1-carboxamido)ethoxy)cyclohexyl)oxy)butanamido)ethyl)amino)quinoline-4-carboxamide] | Inactive
CN(CCNC(=O)[C@H]1CC[C@H](NC(=O)[C@H]2CC[C@H](NC(=O)CCCO[C@H]3CC[C@H](OCCNC(=O)[C@H]4CC(=O)N(C)[C@@H]4c4cccnc4)CC3)CC2)CC1)c1ccc2nccc(C(=O)NCC(=O)N3CC(F)(F)C[C@H]3C#N)c2c1 [Example 2, N-(2-((S)-2-cyano-4,4-difluoropyrrolidin-1-yl)-2-oxoethyl)-6-(methyl(2-((1R,4r)-((1R,4R)-4-(4-(((1S,4R)-4-(2-((2S,3S)-1-methyl-5-oxo-2-(pyridin-3-yl)pyrrolidine-3-carboxamido)ethoxy)cyclohexyl)oxy)butanamido)cyclohexane-1-carboxamido)cyclohexane-1-carboxamido)ethyl)amino)quinoline-4-carboxamide] | Inactive^1
CN(CCNC(=O)CCOCCOCCOCCOCCOCCOCCOCCOCCOCCOCCOCCOCCNC(=O)[C@H]1CC(=O)N(C)[C@@H]1c1cccnc1)c1ccc2nccc(C(=O)NCC(=O)N3CC(F)(F)C[C@H]3C#N)c2c1 [Example 5, N-(2-((S)-2-cyano-4,4-difluoropyrrolidin-1-yl)-2-oxoethyl)-6-(methyl(1-((2S,3S)-1-methyl-5-oxo-2-(pyridin-3-yl)pyrrolidin-3-yl)-1,41-dioxo-5,8,11,14,17,20,23,26,29,32,35,38-dodecaoxa-2,42-diazatetratetracontan-44-yl)amino)quinoline-4-carboxamide] | Inactive

Same assay, conditions: WI-38 target cells; Jurkat FcγRIIIa NFAT-luciferase reporter cells; with anti-cotinine antibody (SEQ ID NO: 11/12); 12-18 hours; average if more than one run; read-out: ADCC Reporter Assay pEC50 (converted)

Structure (SMILES) | EC50 [nM]
CN1C(=O)C[C@H](C(=O)NCCOCCOCCOCCOCCOCCOCCOCCOCCOCCOCCOCCOCCOCCOCCOCCNC(=O)COc2ccc3c(C(=O)NCC(=O)N4CCC[C@H]4C#N)ccnc3c2)[C@H]1c1cccnc1 [Example 10, N-(2-((S)-2-cyanopyrrolidin-1-yl)-2-oxoethyl)-7-((1-((2S,3S)-1-methyl-5-oxo-2-(pyridin-3-yl)pyrrolidin-3-yl)-1,51-dioxo-5,8,11,14,17,20,23,26,29,32,35,38,41,44,47-pentadecaoxa-2,50-diazadopentacontan-52-yl)oxy)quinoline-4-carboxamide] | > 1000
CN1C(=O)C[C@H](C(=O)NCCOCCOCCOCCOCCOCCOCCOCCOCCOCCOCCOCCOCCOCCOCCOCCNC(=O)COc2ccc3nccc(C(=O)NCC(=O)N4CCC[C@@H]4C#N)c3c2)[C@H]1c1cccnc1 [Example 8, N-(2-((R)-2-cyanopyrrolidin-1-yl)-2-oxoethyl)-6-((1-((2S,3S)-1-methyl-5-oxo-2-(pyridin-3-yl)pyrrolidin-3-yl)-1,51-dioxo-5,8,11,14,17,20,23,26,29,32,35,38,41,44,47-pentadecaoxa-2,50-diazadopentacontan-52-yl)oxy)quinoline-4-carboxamide] | 3.98
CN1C(=O)C[C@H](C(=O)NCCOCCOCCOCCOCCOCCOCCOCCOCCOCCOCCOCCOCCOCCOCCOCCNC(=O)COc2ccc3c(C(=O)NCC(=O)N4CC(F)(F)C[C@H]4C#N)ccnc3c2)[C@H]1c1cccnc1 [Example 11, N-(2-((S)-2-cyano-4,4-difluoropyrrolidin-1-yl)-2-oxoethyl)-7-((1-((2S,3S)-1-methyl-5-oxo-2-(pyridin-3-yl)pyrrolidin-3-yl)-1,51-dioxo-5,8,11,14,17,20,23,26,29,32,35,38,41,44,47-pentadecaoxa-2,50-diazadopentacontan-52-yl)oxy)quinoline-4-carboxamide] | > 1000
CN1C(=O)C[C@H](C(=O)NCCOCCOCCOCCOCCOCCOCCOCCOCCOCCOCCOCCOCCOCCOCCOCCOc2ccc3c(C(=O)NCC(=O)N4CCC[C@H]4C#N)ccnc3c2)[C@H]1c1cccnc1 [Example 9, N-(2-((S)-2-cyanopyrrolidin-1-yl)-2-oxoethyl)-7-((1-((2S,3S)-1-methyl-5-oxo-2-(pyridin-3-yl)pyrrolidin-3-yl)-1-oxo-5,8,11,14,17,20,23,26,29,32,35,38,41,44,47-pentadecaoxa-2-azanonatetracontan-49-yl)oxy)quinoline-4-carboxamide] | > 1000
CN(CCNC(=O)CCOCCOCCOCCOCCOCCOCCOCCOCCOCCOCCOCCOCCOCCOCCOCCOCCOCCOCCOCCOCCOCCOCCOCCOCCNC(=O)[C@H]1CC(=O)N(C)[C@@H]1c1cccnc1)c1ccc2nccc(C(=O)NCC(=O)N3CC(F)(F)C[C@H]3C#N)c2c1 [Example 7, N-(2-((S)-2-Cyano-4,4-difluoropyrrolidin-1-yl)-2-oxoethyl)-6-(methyl(1-((2S,3S)-1-methyl-5-oxo-2-(pyridin-3-yl)pyrrolidin-3-yl)-1,77-dioxo-5,8,11,14,17,20,23,26,29,32,35,38,41,44,47,50,53,56,59,62,65,68,71,74-tetracosaoxa-2,78-diazaoctacontan-80-yl)amino)quinoline-4-carboxamide] | 5.01
CN1C(=O)C[C@H](C(=O)NCCOCCOCCOCCOCCOCCOCCOCCOCCOCCOCCOCCOCCOCCOCCOCCOCCOCCOCCOCCOCCOCCOCCOCCNC(=O)COc2ccc3c(C(=O)NCC(=O)N4CCC[C@H]4C#N)ccnc3c2)[C@H]1c1cccnc1 [Example 12, N-(2-((S)-2-cyanopyrrolidin-1-yl)-2-oxoethyl)-7-((1-((2S,3S)-1-methyl-5-oxo-2-(pyridin-3-yl)pyrrolidin-3-yl)-1,75-dioxo-5,8,11,14,17,20,23,26,29,32,35,38,41,44,47,50,53,56,59,62,65,68,71-tricosaoxa-2,74-diazahexaheptacontan-76-yl)oxy)quinoline-4-carboxamide] | 1
CN(CCNC(=O)CCOCCOCCOCCOCCOCCOCCOCCOCCOCCOCCOCCOCCOCCOCCOCCOCCOCCOCCOCCOCCNC(=O)[C@H]1CC(=O)N(C)[C@@H]1c1cccnc1)c1ccc2nccc(C(=O)NCC(=O)N3CC(F)(F)C[C@H]3C#N)c2c1 [Example 6, N-(2-((S)-2-cyano-4,4-difluoropyrrolidin-1-yl)-2-oxoethyl)-6-(methyl(1-((2S,3S)-1-methyl-5-oxo-2-(pyridin-3-yl)pyrrolidin-3-yl)-1,65-dioxo-5,8,11,14,17,20,23,26,29,32,35,38,41,44,47,50,53,56,59,62-icosaoxa-2,66-diazaoctahexacontan-68-yl)amino)quinoline-4-carboxamide] | 12.6
